Reference: PMC6309587 (Anaerobe, 2018)

Tests used:
[1] = system: C. difficile 630Δerm; assay: Minimum inhibitory concentration; assay type: cell-based, Clostridioides difficile; settings: with or without LL-37 (Supl. Table 1)
[2] = system: vanZ1 (CD1240) transcription in 630Δerm; assay: vanZ1 expression by qRT-PCR during growth in antimicrobials; assay type: cell-based, Clostridioides difficile

teicoplanin
teicoplanin MIC of 630Δerm whether or not LL-37 was present [1]: remained unchanged

CC[C@H](C)[C@H](NC(=O)[C@H](CCCCN)NC(=O)[C@H](CCC(=O)O)NC(=O)[C@H](CCCCN)NC(=O)[C@H](CO)NC(=O)[C@H](CCCCN)NC(=O)[C@H](CCCNC(=N)N)NC(=O)[C@H](Cc1ccccc1)NC(=O)[C@H](Cc1ccccc1)NC(=O)[C@H](CC(=O)O)NC(=O)CNC(=O)[C@H](CC(C)C)NC(=O)[C@@H](N)CC(C)C)C(=O)NCC(=O)N[C@@H](CCCCN)C(=O)N[C@@H](CCC(=O)O)C(=O)N[C@@H](Cc1ccccc1)C(=O)N[C@@H](CCCCN)C(=O)N[C@@H](CCCNC(=N)N)C(=O)N[C@H](C(=O)N[C@H](C(=O)N[C@@H](CCC(N)=O)C(=O)N[C@@H](CCCNC(=N)N)C(=O)N[C@H](C(=O)N[C@@H](CCCCN)C(=O)N[C@@H](CC(=O)O)C(=O)N[C@@H](Cc1ccccc1)C(=O)N[C@@H](CC(C)C)C(=O)N[C@@H](CCCNC(=N)N)C(=O)N[C@@H](CC(N)=O)C(=O)N[C@@H](CC(C)C)C(=O)N[C@H](C(=O)N1CCC[C@H]1C(=O)N[C@@H](CCCNC(=N)N)C(=O)N[C@H](C(=O)N[C@@H](CCC(=O)O)C(=O)N[C@@H](CO)C(=O)O)[C@@H](C)O)C(C)C)[C@@H](C)CC)C(C)C)[C@@H](C)CC [LL-37]
increase of vanZ1 expression during growth in LL-37 [2]: ~ 37 fold
